From patent publication US9206128B2 (Constellation Pharmaceuticals, Inc., priority 2011, dated 2015)

How the values were obtained:
[1] = target: EZH2 (Homo sapiens, UniProt Q15910); assay: EZH2 activity inhibition assay (rPRC2, 3H SAM, biotinylated oligonucleosomes, FlashPlate); type: biochemical; conditions: rPRC2, 2 nM EZH2, 0.2 μM 3H SAM, top concentration 80 μM
Method: (§1) EZH2 Assay: Assays were carried out by mixing rPRC2 together with biotinylated oligonucleosome substrates in the presence of the radio-labeled enzyme co-factor, S-adenosyl-L-methionine (^3H SAM) (Perkin Elmer) and monitoring the enzymatically mediated transfer of tritiated methyl groups from ^3H SAM to histone lysine residues. The amount of resulting tritiated methyl histone product was measured by first capturing the biotinylated oligonucleosomes in streptavidin (SAV) coated FlashPlates (Perkin Elmer), followed by a wash step to remove un-reacted ^3H SAM, and then counting on a TopCount NXT 384 well plate scintillation counter (Perkin Elmer).
A 12.5 μL volume of the HMT enzyme, H3K27me3 peptide and oligonucleosome substrate in assay buffer was added to each well of the assay plate using a Multidrop Combi (ThermoFisher). Compounds were pre-incubated with the enzyme for 20 min, followed by initiation of the methyltransferase reaction by addition of 12.5 μL of 3H SAM in assay buffer (final volume=25 μL). […] Stopped reactions were transferred to SAV coated Flashplates (Perkin Elmer), incubated for 120 min, washed with a plate washer, and then read on the TopCount NXT (1.0 min/well) to measure the amount of methyl histone product formed during the reaction.

[2] = target: Y641N EZH2 (Homo sapiens, UniProt Q15910, Y641N); assay: Y641N EZH2 activity inhibition assay (as EZH2 assay, reconstituted H3K27Me2 oligonucleosomes as substrate); type: biochemical; conditions: Y641N EZH2 mutant enzyme
Method: as §1, with “Elmer). The final assay conditions for EZH2 were as follows: 50 mM Tris Buffer pH 8.5, 1 mM DTT, 69 μM Brij-35 detergent, 5.0 mM MgCl2, 0.1 mg/mL BSA, 0.2 μM ^3H SAM, 0.2 μM biotinylated oligonucleosomes, 3.6 μM H3K27me3 peptide and 2 nM EZH2.” for “Elmer).”
A 12.5 μL volume of the HMT enzyme, H3K27me3 peptide and oligonucleosome substrate in assay buffer was added to each well of the assay plate using a Multidrop Combi (ThermoFisher). Compounds were pre-incubated with the enzyme for 20 min, followed by initiation of the methyltransferase reaction by addition of 12.5 μL of 3H SAM in assay buffer (final volume=25 μL). The final concentrations of compounds ranged from a top default concentration of 80 μM down to 0.16 μM in ten 2-fold dilution steps. Reactions were carried out for 60 minutes and quenched with 20 μL per well of 1.96 mM SAH, 50 mM Tris PH 8.5, 200 mM EDTA. Stopped reactions were transferred to SAV coated Flashplates (Perkin Elmer), incubated for 120 min, washed with a plate washer, and then read on the TopCount NXT (1.0 min/well) to measure the amount of methyl histone product formed during the reaction.

Sequence of Y641N EZH2 (Q15910 whole entry Y641N): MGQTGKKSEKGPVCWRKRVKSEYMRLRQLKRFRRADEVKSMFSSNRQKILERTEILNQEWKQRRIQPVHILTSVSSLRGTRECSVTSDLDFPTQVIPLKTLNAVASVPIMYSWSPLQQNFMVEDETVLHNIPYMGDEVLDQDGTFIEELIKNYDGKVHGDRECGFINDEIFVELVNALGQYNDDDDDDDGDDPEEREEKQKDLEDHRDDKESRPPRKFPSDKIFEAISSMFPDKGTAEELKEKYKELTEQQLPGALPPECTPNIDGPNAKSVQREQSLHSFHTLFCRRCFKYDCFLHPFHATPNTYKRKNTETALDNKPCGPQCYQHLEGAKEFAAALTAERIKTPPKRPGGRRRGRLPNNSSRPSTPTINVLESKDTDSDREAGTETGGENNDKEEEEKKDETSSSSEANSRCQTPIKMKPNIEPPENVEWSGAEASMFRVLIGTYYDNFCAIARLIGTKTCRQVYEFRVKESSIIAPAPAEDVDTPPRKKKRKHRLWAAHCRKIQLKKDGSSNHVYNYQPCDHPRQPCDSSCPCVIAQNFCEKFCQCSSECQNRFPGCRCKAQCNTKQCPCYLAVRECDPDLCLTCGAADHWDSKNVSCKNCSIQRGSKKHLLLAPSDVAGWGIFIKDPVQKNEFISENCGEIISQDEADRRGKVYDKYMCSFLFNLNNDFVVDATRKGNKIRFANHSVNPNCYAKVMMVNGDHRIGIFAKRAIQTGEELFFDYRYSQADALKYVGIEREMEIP
Sequence of Y641N EZH2 (O75530 whole entry partner): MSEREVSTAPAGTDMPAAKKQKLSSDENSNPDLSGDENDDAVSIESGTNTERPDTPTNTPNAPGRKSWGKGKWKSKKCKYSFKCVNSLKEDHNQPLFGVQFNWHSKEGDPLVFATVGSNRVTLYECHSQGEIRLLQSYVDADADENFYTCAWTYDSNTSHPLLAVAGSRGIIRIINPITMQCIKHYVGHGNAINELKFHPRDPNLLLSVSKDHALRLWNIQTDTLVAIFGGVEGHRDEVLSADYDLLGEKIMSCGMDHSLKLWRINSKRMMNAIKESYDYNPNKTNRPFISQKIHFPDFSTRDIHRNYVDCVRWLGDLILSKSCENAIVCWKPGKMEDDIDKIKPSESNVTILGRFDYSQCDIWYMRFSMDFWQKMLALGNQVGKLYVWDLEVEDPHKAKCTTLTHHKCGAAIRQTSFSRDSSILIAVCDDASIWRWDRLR
Sequence of Y641N EZH2 (Q15022 whole entry partner): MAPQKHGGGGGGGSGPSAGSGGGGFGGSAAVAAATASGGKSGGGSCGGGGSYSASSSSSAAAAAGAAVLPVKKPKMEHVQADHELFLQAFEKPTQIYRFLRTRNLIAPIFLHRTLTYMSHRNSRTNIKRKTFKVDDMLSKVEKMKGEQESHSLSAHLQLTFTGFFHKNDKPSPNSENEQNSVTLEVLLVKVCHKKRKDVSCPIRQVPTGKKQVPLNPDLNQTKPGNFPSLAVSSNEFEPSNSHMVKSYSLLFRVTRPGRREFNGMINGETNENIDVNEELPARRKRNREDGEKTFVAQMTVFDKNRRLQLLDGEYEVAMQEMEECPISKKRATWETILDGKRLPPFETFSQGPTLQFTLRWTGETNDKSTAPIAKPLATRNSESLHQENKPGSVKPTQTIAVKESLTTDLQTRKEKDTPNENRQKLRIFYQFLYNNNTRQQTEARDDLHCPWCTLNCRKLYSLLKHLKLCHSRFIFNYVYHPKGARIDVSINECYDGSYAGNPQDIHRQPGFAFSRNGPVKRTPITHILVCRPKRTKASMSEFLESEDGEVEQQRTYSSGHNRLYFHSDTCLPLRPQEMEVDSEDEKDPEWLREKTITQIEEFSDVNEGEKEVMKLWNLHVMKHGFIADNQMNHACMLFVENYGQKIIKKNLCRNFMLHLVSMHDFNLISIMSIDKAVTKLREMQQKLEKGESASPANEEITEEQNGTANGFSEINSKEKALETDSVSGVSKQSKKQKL
Sequence of EZH2 (Q15910 whole entry): as the sequence (Q15910 whole entry Y641N) above, with N641Y counted along it
Sequence of EZH2 (O75530 whole entry partner): as the sequence (O75530 whole entry partner) above
Sequence of EZH2 (Q15022 whole entry partner): as the sequence (Q15022 whole entry partner) above

Row | SMILES | IC50 [1] [µM] | IC50 [2] [µM]
1 | Cc1cc(C)c(CNC(=O)c2ccc(Oc3cccc(-c4ccncc4)c3C#N)c(Cl)c2)c(=O)[nH]1 [Compound I-6, 3-chloro-4-(2-cyano-3-(pyridin-4-yl)phenoxy)-N-((2-hydroxy-4,6-dimethylpyridin-3-yl)methyl)benzamide] | 1 to 10 | –
2 | Cc1cc(C)c(CNC(=O)c2ccc(C(C)OC3CCOCC3)cc2)c(=O)[nH]1 (centres unmarked) [Compound I-192] | < 1 | 1 to 10
3 | Cc1cc(C)c(CNC(=O)c2ccc(C(C)Oc3ccccc3)nn2)c(=O)[nH]1 (centres unmarked) [Compound I-182, N-((2-hydroxy-4,6-dimethylpyridin-3-yl)methyl)-6-(1-phenoxyethyl)pyridazine-3-carboxamide] | 1 to 10 | > 80
4 | Cc1cc(C)c(CNC(=O)c2ccc(Oc3ccccc3)cc2C)c(=O)[nH]1 [Compound I-28, N-((2-hydroxy-4,6-dimethylpyridin-3-yl)methyl)-2-methyl-4-phenoxybenzamide] | 1 to 10 | 10 to 50
5 | Cc1cc(C)c(CNC(=O)c2ccc(Oc3ccccc3C#N)c(Cl)c2)c(=O)[nH]1 [Compound I-10, 3-chloro-4-(2-cyanophenoxy)-N-((2-hydroxy-4,6-dimethylpyridin-3-yl)methyl)benzamide] | 1 to 10 | 1 to 10
6 | Cc1cc(C)c(CNC(=O)c2ccc(CN3CCCCC3)cc2C)c(=O)[nH]1 [Compound I-80, N-((2-hydroxy-4,6-dimethylpyridin-3-yl)methyl)-2-methyl-4-(piperidin-1-ylmethyl)benzamide] | 1 to 10 | 10 to 50
7 | Cc1cc(C)c(CNC(=O)c2ccc(Nc3ccccc3)nc2)c(=O)[nH]1 [Compound I-18] | 10 to 50 | > 80
8 | Cc1cc(N)c(CNC(=O)c2ccc(Oc3ccccc3)cc2)c(=O)[nH]1 [Compound I-196, N-((4-amino-2-hydroxy-6-methylpyridin-3-yl)methyl)-4-phenoxybenzamide] | 1 to 10 | > 80
9 | O=C(NCc1cc2c([nH]c1=O)CCC2)c1ccc(Oc2ccccc2)cc1 [Compound I-178, N-((2-oxo-2,5,6,7-tetrahydro-1H-cyclopenta[b]pyridin-3-yl)methyl)-4-phenoxybenzamide] | 10 to 50 | 10 to 50
10 | Cc1cc(C)c(CNC(=O)c2ccc(Oc3ccccc3)nn2)c(=O)[nH]1 [Compound I-158] | > 80 | > 80
11 | O=C(NCc1ccc(-c2ccccc2)[nH]c1=O)c1ccc(Oc2ccccc2)cc1 [Compound I-170] | > 80 | > 80
12 | Cc1cc(C)c(CNC(=O)c2ccc([C@@H](C)Oc3ccccc3)cc2C)c(=O)[nH]1 [Compound I-50] | 1 to 10 | > 80
13 | Cc1cc(C)c(CNC(=O)c2ccc(Oc3cccc(-c4cn[nH]c4)c3C#N)c(Cl)c2)c(=O)[nH]1 [Compound I-5, 3-chloro-4-(2-cyano-3-(1H-pyrazol-4-yl)phenoxy)-N-((2-hydroxy-4,6-dimethylpyridin-3-yl)methyl)benzamide] | 1 to 10 | –
14 | Cc1cc(C)c(CNC(=O)c2ccc3c(c2)CCC3Oc2ccccc2)c(=O)[nH]1 (centres unmarked) [Compound I-45, N-((2-hydroxy-4,6-dimethylpyridin-3-yl)methyl)-1-phenoxy-2,3-dihydro-1H-indene-5-carboxamide] | > 50 | > 80
15 | Cc1cc(C)c(CNC(=O)c2cnc(Oc3ccccc3)nc2)c(=O)[nH]1 [Compound I-79, N-((2-hydroxy-4,6-dimethylpyridin-3-yl)methyl)-2-phenoxypyrimidine-5-carboxamide] | 10 to 50 | > 80
16 | Cc1cc(C)c(CNC(=O)c2ccc(C3CCOC3)cc2)c(=O)[nH]1 (centres unmarked) [Compound I-83, N-((2-hydroxy-4,6-dimethylpyridin-3-yl)methyl)-4-(tetrahydrofuran-3-yl)benzamide] | < 1 | 1 to 10
17 | Cc1cc(C)c(CNC(=O)c2ccc(C(C)N3CCCCC3)cc2)c(=O)[nH]1 (centres unmarked) [Compound I-81] | 1 to 10 | 10 to 50
18 | Cc1cc(C)c(CNC(=O)c2ccc([C@H](C)Oc3cccc(-c4ccc(N)nc4)c3)cc2)c(=O)[nH]1 [Compound I-69] | < 1 | < 1
19 | Cc1cc(C)c(CNC(=O)c2ccc(C3CCCO3)cc2)c(=O)[nH]1 (centres unmarked) [Compound I-84, N-((2-hydroxy-4,6-dimethylpyridin-3-yl)methyl)-4-(tetrahydrofuran-2-yl)benzamide] | 1 to 10 | 10 to 50
20 | Cc1cc(C)c(CNC(=O)c2ccc(C(C)OC3CCOC3)cc2)c(=O)[nH]1 (centres unmarked) [Compound I-184, N-((2-hydroxy-4,6-dimethylpyridin-3-yl)methyl)-4-(1-(tetrahydrofuran-3-yloxy)ethyl)benzamide] | < 1 | 1 to 10
21 | CCc1cccc(Oc2ccc(C(=O)NCc3c(C)cc(C)[nH]c3=O)cc2C)c1C#N [Compound I-4, 4-(2-cyano-3-ethylphenoxy)-N-((2-hydroxy-4,6-dimethylpyridin-3-yl)methyl)-3-methylbenzamide] | 1 to 10 | –
22 | Cc1cc(C)c(CNC(=O)c2ccc(Oc3ccccc3-c3ccncc3)c(Cl)c2)c(=O)[nH]1 [Compound I-7, 3-chloro-N-((2-hydroxy-4,6-dimethylpyridin-3-yl)methyl)-4-(2-(pyridin-4-yl)phenoxy)benzamide] | 1 to 10 | –

More lines, now with the values ahead:

Row | IC50 [1] [µM] | IC50 [2] [µM] | SMILES
23 | < 1 | 1 to 10 | COc1cc(C)[nH]c(=O)c1CNC(=O)c1ccc(Oc2ccccc2)cc1 [Compound I-195, N-((2-hydroxy-4-methoxy-6-methylpyridin-3-yl)methyl)-4-phenoxybenzamide]
24 | < 1 | < 1 | Cc1cc(C)c(CNC(=O)c2ccc(C(C)Oc3ccccc3)cc2)c(=O)[nH]1 (centres unmarked) [Compound I-23, N-((2-hydroxy-4,6-dimethylpyridin-3-yl)methyl)-4-(1-phenoxyethyl)benzamide]
25 | 1 to 10 | > 80 | Cc1cc(C)c(CNC(=O)c2ccc(C3Cc4ccccc4O3)cc2)c(=O)[nH]1 (centres unmarked) [Compound I-51, 4-(2,3-dihydrobenzofuran-2-yl)-N-((2-hydroxy-4,6-dimethylpyridin-3-yl)methyl)benzamide]
26 | < 1 | < 1 | Cc1cccc(OC(C)c2ccc(C(=O)NCc3c(C)cc(C)[nH]c3=O)cc2)c1 (centres unmarked) [Compound I-39, N-((2-hydroxy-4,6-dimethylpyridin-3-yl)methyl)-4-(1-(m-tolyloxy)ethyl)benzamide]
27 | 10 to 50 | > 80 | Cc1cc(C)c(CNC(=O)c2ccc(C(C)Oc3ccccc3)cc2)c(=O)[nH]1 (stereo in doubt) [Compound I-30, (S)—N-((2-hydroxy-4,6-dimethylpyridin-3-yl)methyl)-4-(1-phenoxyethyl)benzamide]
28 | 10 to 50 | 10 to 50 | COC(c1ccccc1)c1ccc(C(=O)NCc2c(C)cc(C)[nH]c2=O)cc1 (centres unmarked) [Compound I-53, N-((2-hydroxy-4,6-dimethylpyridin-3-yl)methyl)-4-(methoxy(phenyl)methyl)benzamide]
29 | 1 to 10 | 10 to 50 | Cc1cc(C)c(CNC(=O)c2ccc(C(C)(O)c3ccccc3)cc2)c(=O)[nH]1 (centres unmarked) [Compound I-25]
30 | < 1 | < 1 | Cc1cc(C)c(CNC(=O)c2ccc([C@H](C)Oc3cccc(C#N)c3)cc2)c(=O)[nH]1 [Compound I-169]
31 | 10 to 50 | 10 to 50 | Cc1cc(C)c(CNC(=O)c2ccc(C(CC(C)C)Oc3ccccc3)cc2)c(=O)[nH]1 (centres unmarked) [Compound I-49, N-((2-hydroxy-4,6-dimethylpyridin-3-yl)methyl)-4-(3-methyl-1-phenoxybutyl)benzamide]
32 | < 1 | < 1 | Cc1cc(C)c(CNC(=O)c2ccc(C(C)Oc3ccccc3F)cc2)c(=O)[nH]1 (centres unmarked) [Compound I-41, 4-(1-(2-fluorophenoxy)ethyl)-N-((2-hydroxy-4,6-dimethylpyridin-3-yl)methyl)benzamide]
33 | < 1 | 1 to 10 | Cc1ccc(OC(C)c2ccc(C(=O)NCc3c(C)cc(C)[nH]c3=O)cc2)cc1 (centres unmarked) [Compound I-35, N-((2-hydroxy-4,6-dimethylpyridin-3-yl)methyl)-4-(1-(p-tolyloxy)ethyl)benzamide]
